In data set [1] the test system is IL6, IL8, and CCL5. Description: cytokine secretion of Sum159-HER2+PTEN- cells, ELISA. It counts as cell-based, human. Conditions: for reduced the levels of these cytokines / secretion of all three cytokines (IL6, IL8, CCL5): Sum159-HER2+PTEN- cells, 1 mM Stat3 Inhibitor VII; for reduced the levels of these cytokines: 5 mM perfosine; for secretion of all three cytokines (IL6, IL8, CCL5): 5 mM Bay11-7082, 5 mM perfosine. The procedure: The NF-kB transcription factor is involved in the transcription of a number of cytokine genes including IL6, IL8, and CCL5 (Yu et al., 2010; herein incorporated by reference in its entirety). Furthermore, IL6-activated NF-kB signaling is mediated by Stat3 and Akt signaling pathways (Iliopoulos et al., 2009; herein incorporated by reference in its entirety). […] The effect of recombinant cytokines or cytokine-blocking antibodies on cytokine production was determined.
(In general: In an ELISA, binding on a coated surface is turned into a signal by an enzyme label.)

Data set [2] concerns BT474-DsRed and BT474-PTEN- cells. Briefly: CD44+/CD24- flow cytometry of BT474 cells. It counts as cell-based, human. Here is the method:
(§1) To measure ALDH activity, the Aldefluor assay was carried out according to manufacturer's guidelines (StemCell Technologies, Inc., Durham, N.C.). Indicated cells were incubated with fluorophore-conjugated CD44 or CD24 antibodies alone or in combination on ice for 30 min, washed with Hank's balanced salt solution (HBSS), and resuspended in DAPI containing HBSS buffer for flow cytometry analyses.
To determine whether induction of the CSC phenotype was dependent on IL6 production, the effect of addition of IL6 receptor antibody on induction of the CSC phenotype was assessed. […] The ability of the anti-IL6R antibody to affect the CD44^+/CD24^− population in Sum159 cells, which lack the expression of the luminal CD24 marker, was examined.
(In general: A flow cytometer gives signals particle by particle.)

In data set [3] the test system is Sum159 cells. Description: CD44/CD24 flow cytometry of Sum159 cells. The format is cell-based, human. The note with it: 5 days. Here is the method:
as §1
However, there was approximately a 2-fold increase in IL6 secretion when cells were treated for 3 weeks or longer (SEE FIG. 14A). […] The effects of trastuzumab-mediated IL6 production on CSCs were also tested. […] In contrast, downregulation of PTEN in these cells generated a population that contained approximately 10% CD44^+/CD24^− cells (FIG. 14B). […] To determine whether induction of the CSC phenotype was dependent on IL6 production, the effect of addition of IL6 receptor antibody on induction of the CSC phenotype was assessed. […] The ability of the anti-IL6R antibody to affect the CD44^+/CD24^− population in Sum159 cells, which lack the expression of the luminal CD24 marker, was examined. […] This discrepancy may be explained by the existence of different stem cell populations in different breast cancer subtypes.

Data set [4] concerns parental BT474 cells. Description: co-culture of parental BT474 cells with BT474-PTEN-LTT cells. It counts as cell-based, human. An excerpt: (§2) The green fluorescent protein (GFP) label in the parental (PTEN wild-type) cells allowed separation by flow cytometry of cell populations following co-culture. Co-culture of parental BT474-GFP cells with BT474-PTEN^−LTT cells increased the percentage of CD44^+/CD24^− CSCs from 0.1% to 60% in parental cells (SEE FIG. 15A). Single GFP-expressing parental BT474 cells were sorted after 3 weeks of co-culture with BT474-PTEN^−LTT and generated multiple colonies. […] To examine the direct role of IL6 in these processes, parental BT474 or SKBR cells were stimulated with recombinant IL6 or conditioned medium (CM) from BT474-PTEN^−LTT cells in the presence or absence of anti-IL6R antibody.

The subject of data set [5] is parental BT474 or SKBR cells. Briefly: stimulation with recombinant IL6 or conditioned medium, mesenchymal phenotype and CD44. The format is cell-based, human. Conditions: 5 days.
Description: as §2

In data set [6] the test system is BT474 cells. Description: tumorspheres in suspension cultures of BT474 cells. It counts as cell-based, human. The procedure:
Single cells were plated on ultra-low attachment plates at a density of 1×10^5/ml and grown for 7 days in a mammocult medium (Stem Cell Technologies). After the treatment of primary spheres, they were dissociated into single-cell suspension and plated at a density of 5×10^3-1×10^4/ml for the subsequent passages. Secondary spheres were counted after 5-7 days in culture.

In data set [7] the test system is BT474 cells. Briefly: cell growth / viable cells of BT474 cells. The format is cell-based, human. The note with it: parental BT474 cells.
Data set [8] has as its system trastuzumab-sensitive BT474-DsRed xenografts. Briefly: BT474-DsRed xenografts. It counts as in vivo, NOD/SCID mice. Conditions: 7-week period, compared to saline.
For data set [9], the system named is trastuzumab-resistant BT474-PTEN- xenografts. Description: BT474-PTEN- xenografts. It counts as in vivo, NOD/SCID mice. The note with it: for secondary tumors and distant metastasis after excision of primary tumors: excised after 8 weeks of treatment, luciferase imaging. An excerpt: Treatments for all early settings were 8 weeks long. […] Drug doses were as described in early setting.
To determine the effects of these treatments on the development of metastasis, we excised primary BT474-PTEN^− tumors after 8 weeks of treatment and assessed subsequent development of local and distant metastasis by luciferase imaging (FIG. 7D).

Data set [10] deals with breast CSCs (tumor-initiating cells). Description: reimplantation assay of residual tumor cells into secondary mice. The format is in vivo. The note with it: residual tumors from treated mice. An excerpt:
One of the hallmarks of CSC model is their ability to initiate tumors in secondary reimplantation assays (Clarke et al., 2006; herein incorporated by reference in its entirety).

Data set [11] concerns SUM159-HER2+PTEN- xenografts. Briefly: SUM159-HER2+PTEN- trastuzumab-resistant xenografts. The note with it: for tumor growth: 8 weeks, perifosine 20 mg/kg twice a week, anti-IL6R 10 mg/kg once a week; for serum human IL6 and IL8 in control and docetaxel-treated mice higher than in treated mice: ELISA; for serum IL6 or IL8 levels: human specific ELISA; for percent of Aldefluor-positive cells in tumors: mouse, in vivo; for body weight: tumor-bearing mice, docetaxel 10 mg/kg once a week. For orientation: In xenograft studies the graft and the host belong to different species.

The subject of data set [12] is HER2 amplified BT474 tumor xenografts. Description: BT474 xenograft in fat pad, early and late treatment. The format is in vivo, NOD/SCID mice. The note with it: for growth of established BT474 tumors: late treatment, trastuzumab 4 mg/kg IP twice a week, docetaxel 10 mg/kg IP once a week. Here is the method: (§3) Five-week old NOD/SCID mice from breeding colony, University of Michigan, Harland and Jackson Laboratory were used throughout the experiments. All experiments involving live mice were conducted in accordance with standard operating procedures approved by University Committee on the Use and Care of Animals at the University of Michigan (ULAM). An estrogen pellet was subcutaneously implanted in each mouse with the fat pad injection of MCF7 or ZR75-1 cells. Mice were sacrificed when tumor reached 1-1.2 CM.
(§4) A xenograft model was used to simulate clinical disease in adjuvant (early treatment) and advanced (late treatment) setting. 5 mice per treatment group were used. For adjuvant setting, 50,000 cells of BT474, ZR75-1 and MCF7 were injected into fat pads and began treatment immediately after inoculation. To simulate advanced disease, 1 million cells of BT474, ZR75-1 and MCF7 were inoculated into fat pads and tumors allowed to reach a size of approximately 0.4 cm. Then, treatment described below was initiated and continued along with assessment of tumor growth for 6-week period. Animals were sacrificed right after completion of 6-week treatment and cancer stem cells were analyzed by Aldefluor assay as described previously.
(§5) NOD/SCID mice implanted with luciferase-labeled cells received 6-week of treatment in both advanced and adjuvant setting.
(§6) Fat pad tumor diameter was measured by caliper weekly. Tumor volumes were calculated using the formula: volume=width^2×length/2. Luciferase-labeled tumor growth was monitored at least every 2 weeks using in vivo imaging system (ISVS, Caliper Life Science). Mice were injected with luciferin (Caliper), anesthetized and imaged according to manufacturer's protocols. For photon flux counting, a charge-coupled device camera system (Xenogen) with a nose-cone isofluorane delivery system and heated stage for maintaining body temperature was used. Results were analyzed after 10 minutes of exposure using the Living Image software provided with the Xenogen imaging system.

The subject of data set [13] is luminal ZR75-1 tumor xenografts. Description: ZR75-1 xenograft in fat pad, early and late treatment. The format is in vivo, NOD/SCID mice. The note with it: for growth of established ZR75-1 tumors: late treatment, trastuzumab 4 mg/kg IP twice a week, docetaxel 10 mg/kg IP once a week. The procedure:
as §3, §4, §5, §6

The test system of data set [14] is HER2 expression in MCF7 cells. Briefly: co-culture of MCF7 cells with human osteocytes, HER2 expression by flow cytometry. It counts as cell-based. Conditions: MCF7 co-cultured with human osteocytes. Here is the method: Preparation of cells for FACS analysis and sorting was described as followings. Cells were collected and rinsed twice in 1×PBS containing 2% FBS and a fraction of cells were added with human immunoglobulin to identify non-specific binding and use these cells as a gate for negative control. Cells were incubated with appropriate antibody dilution as manufacture's guidelines. The antibody included anti-HER2/neu APC (Biosciences, Cat#340554), anti-HER2/neu PE (Biosciences, Cat#340552).
To simulate the bone microenvironment in vitro, co-culture experiments were performed utilizing MCF7, DsRed labeled with osteocytes generated from human bone mesenchymal stem cells. […] A number of biological effects of the bone microenvironment and mediated by RANK-ligand.

Entries after “also recorded” stand apart in the source; their conditions may differ.

With Tocilizumab [anti-IL6R antibody], in data set [1] (HER2+PTEN- cells with recombinant IL6), the “IL6-increased production of all three cytokines” value is “completely inhibited”. In addition, the “reduced the levels of these cytokines” value in data set [1] is listed as “more than 50%”. Also, in data set [2], the “CD44+/CD24- CSC population” value is on record as “reduced” and the “increase in CD44+/CD24- population induced by trastuzumab” value was “completely blocked”. In [3], the cell growth entry was “substantial growth arrest” and the “generation of CD24+ cells” value worked out at 11%. Further, the “induction of the CD44+/CD24- phenotype” value in [4] (antibody added at the time of co-culture) is on record as “inhibited”. Moreover, in [4] (late treatment), the “CD44+/CD24- phenotype in parental cells” value was “no effect; also recorded: resistant”. The “IL6- or CM-induced mesenchymal phenotype and CD44 expression” value in data set [5] is reported as “able to reverse”. Also, the “number of tumorspheres induced by CM” value in data set [6] is given as “reduced”. Also, the “CM- or IL6-conferred resistance to trastuzumab” value in [7] is “blocked; also recorded: reversed”. Further, the “growth of BT474-DsRed xenografts” value in data set [8] was “little effect”. In addition, in data set [9] (early treatment), the “growth of BT474-PTEN- xenografts” value is reported as “completely blocked tumor growth”. The “tumor growth as assessed by tumor weight at sacrifice” value in data set [9] (established tumors (late treatment)) is given as “completely blocked tumor growth”. Further, the “secondary tumors and distant metastasis after excision of primary tumors” value in data set [9] was “no distant metastasis detected”. Further, the “secondary tumors and distant metastasis after excision of primary tumors” value in data set [9] (listed as Anti-IL6R antibody) was “completely inhibited”. Besides, in data set [9] (human specific ELISA), the “serum IL6 levels” value was “lowest levels”. Also, in [10], the “frequency of CSCs reduced” value is given as “more than 50%” and the “frequency of breast CSCs” value is on record as “significantly lower”. Besides, in data set [11], the tumor growth entry is given as “significantly inhibited tumor growth”; the “serum human IL6 and IL8 in control and docetaxel-treated mice higher than in treated mice” value worked out at 2 fold; the “serum IL6 or IL8 levels” value was “significantly reduced”; the “percent of Aldefluor-positive cells in tumors” value (“percent” for short) was “significantly reduced; also recorded: substantial reduction”.
As to `Cc1ccc(S(=O)(=O)/C=C/C#N)cc1` [Bay11-7082], the “secretion of all three cytokines (IL6, IL8, CCL5)” value (“secretion of all three cytokines” below) was “completely inhibited” in data set [1] and “almost completely blocked; also recorded: completely suppressed” in data set [1] (listed as Bay11).
Take `CC(=O)O[C@@]12CO[C@@H]1C[C@H](O)[C@@]1(C)C(=O)[C@H](O)C3=C(C)[C@@H](OC(=O)[C@H](O)[C@@H](NC(=O)OC(C)(C)C)c4ccccc4)C[C@@](O)([C@@H](OC(=O)c4ccccc4)[C@H]21)C3(C)C` [docetaxel]: in data set [12] (early (adjuvant) setting), the “tumor growth / formation, BT474” value is “suppressed tumor formation”. The “growth of established BT474 tumors” value in data set [12] is listed as “reduced tumor growth”; in [12] (listed as Docetaxel), “highest efficacy to shrink tumors”. In addition, the “tumor growth / formation, ZR75-1” value in [13] (early (adjuvant) setting) is given as “suppressed tumor formation”. For the same compound, the “growth of established ZR75-1 tumors” value is “reduced tumor growth” in data set [13] and “highest efficacy to shrink tumors” in data set [13] (listed as Docetaxel). Further, the “serum IL6 or IL8 levels” value in data set [11] is given as “no significant effect”. Also, the “percent” value in data set [11] is “no significant effect; also recorded: no reduction”. For the same compound, in [11], the body weight entry was “lost body weight”.
For the compound `CCCCCCCCCCCCCCCCCCOP(=O)([O-])OC1CC[N+](C)(C)CC1` [perifosine], in data set [1], the “secretion of all three cytokines” value is recorded as “only partially inhibited” and the “reduced the levels of these cytokines” value amounted to 50%. For the same compound, in data set [11], the tumor growth result is given as “significantly inhibited tumor growth”; the “serum human IL6 and IL8 in control and docetaxel-treated mice higher than in treated mice” value was 2 fold; the “serum IL6 or IL8 levels” value was “significantly reduced”; the “percent” value is recorded as “significantly reduced; also recorded: substantial reduction”. For the same compound, the body weight result in data set [11] is recorded as “less body weight loss”.
Stat3 Inhibitor VII: in data set [1], the “secretion of all three cytokines” value is listed as “only partially inhibited” and the “reduced the levels of these cytokines” value is given as 50%.
With denosumab, the “HER2 induction by osteocyte co-cultures” value in [14] is given as “partially blocked”; in data set [14] (listed as Denosumab), “able to suppress”.

The values above are taken from patent publication US9327023B2, “HER2 targeting agent treatment in non-HER2-amplified cancers having HER2 expressing cancer stem cells” (The Regents of the University of Michigan, priority 2011, dated 2016).
